This is an account of results in PMC10054634, “Chemical Constituents of Thesium chinense Turcz and Their In Vitro Antioxidant, Anti-Inflammatory and Cytotoxic Activities” (Molecules, 2023).

The nature of data set [1]: DPPH radical scavenging assay. The conditions noted are these: for antioxidant activity on DPPH radical scavenging (in words): compared with positive control ascorbic acid; for SC50: concentration required for 50% reduction of DPPH radicals, 37 °C, 30 min, 517 nm, nc = SC50 cannot be calculated due to weak or no related activities. Here is the method:
The 2, 2-diphenyl-1-picrylhydrazyl (Aldrich Chem. Co. Ltd, Shanghai, China) radical scavenging activity assay was performed according to the previously published method with some modification. Test samples were dissolved in MeOH to six different concentrations ranging from 3.125 to 100 μM. Then, 100 μL of 100 μM DPPH in MeOH were mixed with 100 μL of samples at different concentrations in the wells of 96-well plates. The reaction mixtures were incubated in the dark at 37 °C for 30 min and then measured at 517 nm. Ascorbic acid was used as the positive control. The scavenging activity (SC) was estimated as follows: % SC = [1 − (Asample − Ablank)/Acontrol] ×100. Asample was the equivalent mixture of test sample and DPPH solution. Ablank was the equivalent mixture of test sample and MeOH solution. Acontrol was the equivalent mixture of DPPH and MeOH solution. The SC50 values were used to evaluate the antioxidant activities of isolated compounds. The experiments were performed in triplicate, and the data were expressed as the means ± SD of three independent experiments.

The nature of data set [2]: Cytotoxicity in RAW 264.7 cells (CCK-8). The conditions noted are these: mouse.
Experimental: (§3) The cell viability was determined by the CCK-8 assay method. The cytotoxicity was calculated from the plotted results using untreated cells at 100%.
The test system of data set [3] is SiHa. Description: Cytotoxic assay (CCK-8), SiHa. The class given is cell-based, human. The conditions noted are these: Homo sapiens, 48 h, mean ± SD (n = 3). Here is the method:
(§1) Four human cancer cell lines, A549, NCI-H292, SiHa and MKN45, were purchased from the Cell Bank of the Chinese Academy of Sciences (Shanghai, China). […] Cisplatin (Abmole Bioscience, Shanghai, China) was used as positive control.
(§2) A total of 180 μL of cancer cells (5 × 10^3) were plated in each well of 96-well plates and cultured for 24 h, then the supernatant of the culture was discarded and 180 μL complete medium with different concentrations of test samples were added into triplicate wells of each cell line, respectively. Thereafter, A549, NCI-H292, SiHa and MKN45 were incubated for 48 h, respectively. The cell viability was evaluated by Cell Counting Kit-8 (CCK-8, Best Bio., Beijing, China), respectively. The experiments were performed in triplicate, and the data were expressed as the means ± SD of three independent experiments.

The test system of data set [4] is A549. The data set is described as follows: Cytotoxic assay (CCK-8), A549. The class given is cell-based, human. The conditions noted are these: Homo sapiens, A549, 48 h, mean ± SD (n = 3). As for the experimental part: as §1, §2
Data set [5] concerns NCI-H292. The data set is described as follows: Cytotoxic assay (CCK-8), NCI-H292. In kind it is cell-based, human. The conditions noted are these: Homo sapiens, NCI-H292, 48 h, mean ± SD (n = 3). As for the experimental part:
as §1, §2

In data set [6] the test system is MKN45. The data set is described as follows: Cytotoxic assay (CCK-8), MKN45. The conditions noted are these: Homo sapiens, MKN-45, MKN45, 48 h, mean ± SD (n = 3). In kind it is cell-based, human. As for the experimental part: as §1, §2
The test system of data set [7] is NO production in LPS-activated RAW 264.7 cells. The data set is described as follows: Inhibition of NO production in LPS-activated RAW 264.7 cells (Griess reaction). In kind it is cell-based. The conditions noted are these: Mus musculus, RAW264.7; RAW 264.7, 1 μg/mL LPS, 24 h; mean ± SD (n = 3); read-out: IC50 (NO inhibitory activity). Here is the method:
The macrophage RAW 264.7 cells were obtained from the Cell Bank of the Chinese Academy of Sciences (Shanghai, China). A total of 180 μL of RAW 264.7 cells (1 × 10^4) were plated respectively in each well of 96-well plate and cultured for 24 h, then the supernatant of the culture was discarded and 180 μL complete medium with 1 μg/mL LPS and different concentrations of test samples were added into triplicate wells for 24 h. The inhibition effects on LPS-stimulated NO production was evaluated by the Griess reaction assay. The experiments were performed in triplicate, and the data were expressed as the means ± SD of three independent experiments.
For orientation: Nitrite, measured by Griess reagent, commonly stands in for NO production.

In data set [8] the test system is LPS-induced acute lung injury. The arrangement: method as in PMID 34417573, PMID 34038447. The conditions noted are these: mice; cited from earlier work.
Data set [9] concerns RAW 264.7 cells.
Experimental: as §3

“Also recorded” adds a separate entry of the source.

Turning to `COc1cc(C(O)C(CO)Oc2c(OC)cc(C(O)C(O)CO)cc2OC)ccc1O` (stereo not drawn) [Compound 17, (erythro, erythro)-1-[4-[2-hydroxy-2-(4-hydroxy-3-methoxy-phenyl)-1-(hydroxymethyl)ethoxy]-3,5-dimethoxyphenyl]-1,2,3-propanetriol], the “antioxidant activity on DPPH radical scavenging (in words)” value (“antioxidant activity” for short) in data set [1] was “moderate activity”. The IC50 in [2], in data set [3], in data set [4], in [5], in data set [6] and in [7] was above 200 µM each time.

On to `COc1cc(C(O)C(CO)Oc2ccc(C(O)C(O)CO)cc2OC)ccc1O` (centres unmarked) [Compound 18, 1-(4-hydroxy-3-methoxy)-phenyl-2-[4-(1,2,3-trihydroxypropyl)-2-methoxy]-phenoxy-1,3-propan-diol], for which the “antioxidant activity” value in data set [1] was “weak antioxidant activities; also recorded: moderate activity”. Besides, in data set [1], the SC50 was 127.9 ± 15.4 µM. Further, the IC50 in data set [2], in [3], in data set [4], in data set [5], in data set [6] and in data set [7] was above 200 µM throughout.

`O=C1O[C@H]([C@@H](O)CO)C(O)=C1O` [Ascorbic acid, reference compound]: the SC50 in data set [1] is 15.6 ± 0.8 µM; in [1] (listed as ascorbic acid), 15.5 ± 0.8 µM.

Regarding `CCOC(=O)/C=C/c1ccc(O)c(OC)c1` [Compound 21, 3-O-ethyl ferulate], the SC50 in [1] was 50.8 ± 1.4 µM. The “anti-inflammatory effects against LPS-induced acute lung injury” value in [8] is given as “obvious anti-inflammatory effects”. Moreover, the IC50 (as a rule, the midpoint of a concentration-inhibition curve) is above 200 µM in data set [2]; above 200 µM in data set [3]; above 200 µM in [4]; above 200 µM in data set [5]; above 200 µM in data set [6]; 28.6 ± 3 µM in [7].

`COc1cc(C2OCC3C(c4cc(OC)c(OC5OC(CO)C(O)C(O)C5O)c(OC)c4)OCC23)cc(OC)c1O` [Compound 11, syringaresinol-4′-O-β-D-glucopyranoside]: the SC50 in data set [1] is 16.2 ± 1.6 µM. Besides, the IC50 in [2], in data set [3], in data set [4], in data set [5], in data set [6] and in data set [7] was above 200 µM each time.

scopolin [Compound 27]: in [9], the IC50 was above 200 µM.

For the compound `COc1cc([C@@H]2OC[C@@H](Cc3ccc(O[C@@H]4O[C@H](CO)[C@@H](O)[C@H](O)[C@H]4O)c(OC)c3)[C@H]2CO)ccc1O` [Compound 19, lariciresinol-4-O-β-D-glucoside], the “antioxidant activity” value in [1] is “significant scavenging activity”. In addition, the SC50 in [1] was 48.8 ± 2.9 µM. The IC50 in [2], in data set [3], in data set [4], in data set [5], in [6] and in data set [7] was above 200 µM throughout.

Turning to `COc1cc([C@@H](OC)[C@H](O)CO)ccc1O` [Compound 26, alatusol D], the “antioxidant activity” value in [1] was “weak antioxidant activities”. The SC50 in [1] is 284.0 ± 16.5 µM. The IC50 in data set [2], in data set [3], in [4], in [5], in data set [6] and in [7] was above 200 µM each time.

In the case of `COc1cc(C2OCC3C(c4ccc(OC5OC(CO)C(O)C(O)C5O)c(OC)c4)OCC23)ccc1O` [Compound 10, pinoresinol-4-O-D-glucoside], in data set [1], the SC50 is 30.5 ± 6.5 µM. Moreover, the IC50 in data set [2], in data set [3], in data set [4], in data set [5], in [6] and in data set [7] was above 200 µM throughout.

For the compound `OCCc1cc(O)cc(O[C@@H]2O[C@H](CO)[C@@H](O)[C@H](O)[C@H]2O)c1` [Compound 7, 3,5-dihydroxyphenethyl alcohol 3-O-β-D-glucopyranoside], the “antioxidant activity” value in data set [1] was “weak antioxidant activities; also recorded: weak activity”. For the same compound, the SC50 in [1] is 255.2 ± 12.6 µM. The IC50 in data set [2], in data set [3], in data set [4], in data set [5], in data set [6] and in [7] was above 200 µM in each case.

Consider `COc1cc(C(O)C(CO)Oc2c(OC)cc(C3OCC4C(c5ccc(OC6OC(CO)C(O)C(O)C6O)c(OC)c5)OCC34)cc2OC)ccc1O` (centres unmarked) [Compound 9, samsesquinoside], for which the SC50 in data set [1] was 47.3 ± 2.3 µM. Further, the IC50 in data set [2], in data set [3], in [4], in data set [5], in [6] and in data set [7] was above 200 µM in each case.
